Consider 28 compounds from ChEMBL document CHEMBL4421722, “Inhibitors of protein prenyltransferases” (2013).

Structures are written as SMILES.

The species entered for this experiment is Rattus norvegicus. Description: Inhibition of rat recombinant geranylgeranyltransferase type I expressed in Escherichia coli assessed as residual enzyme activity for geranylgeranylation of K-Ras4B at 50 uM incubated for 30 mins in presence of [3H]GGPP by scintillation counting assay relative to control.

For the compound `Cc1ccc([C@H]2C(C(=O)O)=CC[C@@H](c3ccc(C)cc3)N2S(=O)(=O)c2ccc(Cl)cc2)cc1`, the Activity is 53%. The figure for `CCCS[C@@H]1C[C@@H](c2ccc(CC)cc2)N(S(=O)(=O)c2ccc(C)cc2)C[C@H]1C(=O)O` is 69%. To `CC(=O)C1=CC[C@@H](c2cccc(C)c2)N(S(=O)(=O)c2ccc(C)cc2)C1` belongs 102%. On to `COc1cc([C@@H]2C[C@@H](SCCc3ccccc3)[C@H](C(=O)O)CN2S(=O)(=O)c2ccc(C)cc2)cc(OC)c1OC`, for which the Activity was found to be 43.5%. To `COc1ccc([C@@H]2CC=C(C(C)=O)CN2S(=O)(=O)c2ccc(C)cc2)cc1OC` belongs 83.8%. To `CCCS[C@@H]1C[C@@H](c2ccc(OC)cc2)N(S(=O)(=O)c2ccccc2)C[C@H]1C(=O)O` belongs 89.5%. For `Cc1ccc([C@H]2C(C(=O)O)=CC[C@@H](c3ccccc3)N2S(C)(=O)=O)cc1`, the Activity is 90.4%. To `COc1cccc([C@@H]2C[C@@H](Sc3ccc(C)cc3)[C@H](C(=O)O)CN2S(=O)(=O)c2ccc(C)cc2)c1` belongs 77%; to `COc1cccc([C@@H]2CC=C(C(=O)O)[C@H](c3ccc(Cl)cc3)N2S(=O)(=O)c2ccc(C)cc2)c1`, 54.1%; to `CCCS[C@@H]1C[C@@H](c2ccc3c(c2)OCO3)N(S(=O)(=O)c2ccc(C)cc2)C[C@H]1C(=O)O`, 83.6%. To `Cc1ccc([C@@H]2C[C@@H](Sc3ccccc3)[C@H](C(=O)O)CN2S(=O)(=O)c2ccc(C)cc2)cc1` belongs 63.2%; to `CCS[C@@H]1C[C@@H](c2ccc(C)cc2)N(S(C)(=O)=O)C[C@H]1C(=O)O`, 94.8%.

With `Cc1ccc(S(=O)(=O)N2[C@@H](c3cccc(Br)c3)C(C(=O)O)=CC[C@H]2c2ccccc2)cc1`, the Activity is 65.9%. The figure for `CCS[C@@H]1C[C@@H](c2ccc(OC)c(OC)c2)N(S(=O)(=O)c2ccc(C)cc2)C[C@H]1C(=O)O` is 74.4%. To `C=CCS[C@@H]1C[C@@H](c2ccc(OC)cc2)N(S(=O)(=O)c2ccc(Cl)cc2)C[C@H]1C(=O)O` belongs 95.4%; to `CCc1ccc([C@@H]2CC=C(C(=O)O)[C@H](c3ccc(C(C)(C)C)cc3)N2S(=O)(=O)c2ccc(C)cc2)cc1`, 79.7%. The figure for `COc1ccc([C@@H]2C[C@@H](Sc3ccc(C)cc3)[C@H](C(=O)O)CN2S(=O)(=O)c2ccc(C)cc2)cc1OC` is 105%. Regarding `Cc1ccc(S[C@@H]2C[C@@H](c3cccc(Br)c3)N(S(=O)(=O)c3ccc(C)cc3)C[C@H]2C(=O)O)cc1`, the Activity came to 94%.

With `COc1cccc([C@@H]2C[C@@H](SC3CCCC3)[C@H](C(=O)O)CN2S(=O)(=O)c2ccc(C)cc2)c1`, the Activity turned out to be 113%. The figure for `CCc1ccc([C@@H]2C[C@@H](SCC(C)C)[C@H](C(=O)O)CN2S(=O)(=O)c2ccc(C)cc2)cc1` is 68.5%; for `COc1ccc([C@@H]2CC=C(C(=O)O)[C@H](c3cccc(Cl)c3)N2S(=O)(=O)c2ccc(C)cc2)cc1` it is 89.3%; for `COc1ccc([C@@H]2CC=C(C(=O)O)[C@H](c3cccc(Br)c3)N2S(=O)(=O)c2ccccc2)cc1` it is 58.2%. For the compound `C=CCS[C@@H]1C[C@@H](c2ccc(Cl)cc2)N(S(=O)(=O)c2ccc(C)cc2)C[C@H]1C(=O)O`, the Activity stood at 49.1%. To `COc1ccc([C@@H]2CC=C(C(=O)O)[C@H](c3cccc(Cl)c3)N2S(=O)(=O)c2ccc(C)cc2)cc1OC` belongs 87.8%. To `CCc1ccc([C@@H]2CC=C(C(=O)O)[C@H](c3cccc(Cl)c3)N2S(=O)(=O)c2ccc(C)cc2)cc1` belongs 73.6%. The figure for `Cc1ccc(S(=O)(=O)N2C[C@@H](C(=O)O)[C@H](SC3CCCC3)C[C@H]2c2ccc3c(c2)OCO3)cc1` is 98.1%; for `COc1ccc([C@@H]2CC=C(C(=O)O)[C@H](c3ccc(Cl)cc3)N2S(=O)(=O)c2ccccc2)cc1` it is 86.8%; for `Cc1ccccc1S(=O)(=O)N1C[C@@H](C(=O)O)[C@H](SCC(C)C)C[C@H]1c1ccc(Cl)cc1` it is 76.1%.
